Our source for the melting point values is a melting point compilation (Tetko et al.).

SMILES strings stand for the structures.

Turning to `O=C(c1ccc(OCc2ccccc2)cc1)c1cn(C(=O)c2ccc(OCc3ccccc3)cc2)c2ccccc12`, the melting point (as a rule, the temperature of the solid-liquid transition) was found to be 181 °C.

On to `CC(=O)/C=C(\C)c1ccc(-c2ccccc2)cc1`, for which the melting point was in the range of 132 to 134 °C.

`O=C1OC(=O)c2cc3ccccc3cc21` showed a melting point of 249 °C.

On to `COc1ccccc1/C=C(\C#N)c1nc2ccccc2n1C`, for which the melting point worked out at 226 °C.

For the compound `COc1ccc(C2(C)CCc3oc4ccc(Cl)cc4c3-c3oc(C)cc32)cc1` (stereo not drawn), the melting point worked out at 144 °C.

`CC1CC(OC(=O)c2ccccc2)CC(C)(C)N1` (stereo not drawn) had a melting point of 70.5 °C.

On to `NC(c1ccccc1)(c1ccccc1)c1ccccc1`, for which the melting point is 102 °C.

On to `CC(C)CC(C)(N)P(=O)(O)O` (stereo not drawn), for which the melting point fell in the range of 234 to 238 °C.

`Cc1ccn2c(=O)c3ccccc3cc2c1` showed a melting point of 124 °C.

Regarding `CC(C)(C)CC(C)(C)c1ccc(O)cc1`, the melting point worked out at 84.5 °C.

For `FC(F)(F)C(F)(F)C(F)(F)C(F)(F)C(F)(F)C(F)(F)I`, the melting point is -45 °C.

As for `CC(=O)N1CCc2cc(Br)ccc21`, the melting point was 124 to 127 °C.

`CC(C)(C)C(=O)C1C(=O)c2ccccc2C1=O`: the melting point worked out at 109 °C.

For the compound `O=Cc1ccc(N2CCOCC2)nc1`, the melting point lay in the range of 88 to 89 °C.

`CCCCCCCCCCCCCCCC(=O)CC` showed a melting point of 51 °C.

In turn, `CC(=Cc1ccc(C(=O)O)cc1)c1ccc2c(c1)C(C)(C)CCC2(C)C` returned a melting point of 240 °C.

On to `Cc1cc(Br)c(N)cc1OCc1ccccc1`, for which the melting point fell in the range of 137 to 138 °C.

On to `CCOC(=O)C(C(=O)OCC)C(C(=O)OCC)C(=O)OCC`, for which the melting point turned out to be 77 °C.

As to `CC1(C)CC(=O)NC(=O)C1`, the melting point came out at 145 °C.

With `COc1ccc2c(OC(C)=O)c(OC)c(OC)c(OC(C)=O)c2c1`, the melting point was 77.5 °C.

`NC(=S)NN=Cc1ccccc1`: the melting point fell in the range of 154 to 156 °C.

As for `O=C(CBr)C(c1ccccc1)c1ccccc1`, the melting point lay within 64 to 66 °C.

`CC(=O)Oc1ccc(N/C=C2\C(=O)C3(C)CCC2C3(C)C)cc1` (stereo not drawn) registered a melting point of 222 °C.

In turn, `NC(=O)NN=CC(=O)c1cc(C(=O)C=NNC(N)=O)cc(C(=O)C=NNC(N)=O)c1` returned a melting point of more than 300 °C.

For `CN1CC(C(=O)O)CC1=O` (stereo not drawn), the melting point amounted to 152 °C.

For the compound `CC(=O)c1c(Cl)cccc1Cl`, the melting point was 43 °C.

`OC(CS)C(O)CS` (stereo not drawn) registered a melting point of 83 °C.

Take `CC(=O)C(C(C)=O)=C1SCCS1`: the melting point was determined as 91 °C.

As to `CCCCCCCCCCCCC1=C(OC(C)=O)C(=O)c2ccccc2C1=O`, the melting point was 59.6 °C.

`COC(=O)C1Nc2ccccc2C1(C)C` (stereo not drawn): the melting point lay in the range of 168 to 170 °C.

Compound `Cn1c(=O)c2c(ncn2CC2OCCO2)n(C)c1=O` came in with a melting point of 144 °C.

For the compound `CCOC(=O)c1ccccc1C(=O)c1ccccc1`, the melting point came out at 59.5 °C.

Compound `O=S(=O)(CCCl)c1ccc(F)cc1` showed a melting point of 69 °C.

Compound `CCN(CC)c1cccc(O)c1` came in with a melting point of 78 °C.

`CCS(=O)(=O)c1cccnc1S(=O)(=O)NC(=O)Nc1nc(OC)cc(OC)n1`: the melting point worked out at 177 °C.

Compound `CC(=O)C(C(C)=O)=C1SCCCS1` registered a melting point of 91 °C.

For the compound `Cc1c(Cl)c(C)c(Cl)c(Cl)c1Cl`, the melting point is 223 °C.

Regarding `Nc1cc(Cl)c([N+](=O)[O-])cc1Cl`, the melting point is 155 °C.

`C=C(C)C(=O)OCCCC`: the melting point is -75 °C.

`CCCCCCCCCCCCCCC(C)C` returned a melting point of 4 °C.

`Cc1c(C#N)c(N)n(Cc2c(Cl)cccc2Cl)c1C` gave a melting point of 194 to 196 °C.

For the compound `COc1cc(F)ccc1C=O`, the melting point worked out at 61 °C.

In turn, `O=Cc1ccc2ncccc2c1` returned a melting point of 74 to 75 °C.

In turn, `N#Cc1cc([N+](=O)[O-])cc([N+](=O)[O-])c1` showed a melting point of 129 °C.

`CC(C)C(C)(C)C` returned a melting point of -25 °C.

Consider `Cc1nc(NC(=N)N)sc1Br`, for which the melting point was 203 to 205 °C.

Regarding `CCOc1cccc(C=O)c1O`, the melting point was 67 °C.

Take `Oc1cc(C(F)(F)F)nc2c(Br)cccc12`: the melting point lay in the range of 136 to 137 °C.

For the compound `FC(F)(F)C1(F)C(F)(F)C(F)(F)C(F)(F)C2(F)C(F)(F)C(F)(F)C(F)(F)C(F)(F)C12F` (stereo not drawn), the melting point was -70 °C.

Compound `CCOC(=O)/C(=C\c1ccccc1)c1ccccc1[N+](=O)[O-]` yielded a melting point of 95 °C.

Compound `O=C1CCc2cccc(O)c2C1` had a melting point of 156 to 157 °C.

Turning to `Nc1c(F)c(F)c(C(=O)O)c(F)c1F`, the melting point is 183 °C.

For the compound `COc1cc2c(cc1OC)C(c1ccc(C)cc1)N(C(C)=O)CC2` (stereo not drawn), the melting point was in the range of 183 to 185 °C.

`CC1=C[C@@]2(C)O[C@@H](c3ccccc3)[C@@H]1C(C#N)(C#N)C2(C#N)C#N` displayed a melting point of 170 to 171 °C.

`CCOC(=O)CCCC(=O)OCC` had a melting point of -24.1 °C.

The compound `COC(=O)C1(S(=O)(=O)c2ccc(Cl)cc2)CC1` gave a melting point of 116 °C.

The compound `COc1ccc(N=C=S)c(OC)c1` came in with a melting point of 52 °C.

`Cn1nc(-c2ccccc2)cc1C(=O)O` showed a melting point of 186 to 187 °C.

As for `CCC(=O)c1cc(C)ccc1O`, the melting point is 2 °C.

As for `O=C(O)Cc1c(F)ccc(F)c1F`, the melting point lay in the range of 111 to 114 °C.

`CNCc1nn(C)c2ccccc12`: the melting point fell in the range of 37 to 40 °C.

As for `O=C(O)c1ccccc1-n1cccn1`, the melting point lay within 190 to 193 °C.

In turn, `O=C(CCl)c1ccc(C(=O)CCl)cc1` returned a melting point of 153 °C.

In turn, `Cc1nc(S)sc1C` had a melting point of 166 to 168 °C.

Compound `Fc1ccc(Oc2ccnc3cc(Cl)cc(Cl)c23)cc1` had a melting point of 107 °C.

For `COC1=C(C(C)(C)C(C)C)C(=O)C(=O)c2ccccc21`, the melting point was 93.3 to 93.6 °C.

On to `OCC(Br)=C(Br)CO`, for which the melting point lay in the range of 111 to 116 °C.

`O=C(O)c1nccc2ccccc12` showed a melting point of 160 to 165 °C.

In the case of `C1CCC2OC2C1` (stereo not drawn), the melting point is -40 °C.

`O=[N+]([O-])c1ccc(CS(=O)(=O)Cl)cc1` registered a melting point of 91 to 92 °C.

Consider `CC(C)NC(=O)COC(=O)c1ccccc1`, for which the melting point amounted to 130 °C.

`CC(=O)OC1CC(=O)OC1=O` (stereo not drawn) registered a melting point of 55 °C.

In turn, `O=S(=O)(Cl)c1cccc2cccnc12` came in with a melting point of 129 °C.

As for `CC(=O)OC1CCC2C3CCC4=CC(=O)CCC4(C)C3CCC12C` (stereo not drawn), the melting point came out at 140 °C.

With `COc1ccc(N/N=C(\C#N)c2nc(-c3ccccc3)cs2)cc1`, the melting point is 150 °C.

`Nc1cc(C(=O)O)cc(C(=O)O)c1` came in with a melting point of 360 °C.

`Oc1c(Cl)cccc1-c1ccccc1` displayed a melting point of 6 °C.

Turning to `N[C@@H](Cc1ccccc1)C(=O)O`, the melting point lay within 270 to 275 °C.

Turning to `NCCCCCCC(=O)O`, the melting point was 195 °C.

The compound `Cc1cc(CO)nn1C` returned a melting point of 50 to 51 °C.

Turning to `COc1ccc(-c2csc(/C(C#N)=N\Nc3ccc(Br)cc3)n2)cc1`, the melting point stood at 196 °C.

For `Cc1cc(C)c(C=O)[nH]1`, the melting point was 90 to 91 °C.

`NC(=O)c1ccc(C(=O)O)cc1`: the melting point turned out to be 300 °C.

In turn, `Cc1cnc(NS(=O)(=O)c2ccc(N)cc2)nc1` had a melting point of 262 °C.

The compound `FC(F)C(F)(F)CBr` returned a melting point of less than 25 °C.

`C=CCn1c(=S)[nH]c2ccccc2c1=O` returned a melting point of 206 to 207 °C.

Take `Cc1n[nH]c(SCC#N)n1`: the melting point fell in the range of 158 to 160 °C.

As to `Nc1cc2[nH]c(=O)c(C(=O)c3ccccc3)cc2cc1C=O`, the melting point is 278 to 279 °C.

With `CSc1ncccc1C(=O)Cl`, the melting point was determined as 94 °C.

Take `CC(C)NC(=S)NN`: the melting point lay within 96 to 97 °C.

As to `NC(=S)C1COc2ccccc2O1` (stereo not drawn), the melting point was 180 to 183 °C.

Consider `O=[N+]([O-])c1cc([N+](=O)[O-])c(C(Br)C(Br)c2ccccc2)cc1/C=C\c1ccccc1` (stereo not drawn), for which the melting point came out at 212 °C.

The compound `CC(C)C(Nc1ccc(C(F)(F)F)cc1Cl)C(=O)OC(C#N)c1cccc(Oc2ccccc2)c1` (stereo not drawn) returned a melting point of 25 °C.

`CC(=O)c1ccc2ccc3cccc4ccc1c2c34` showed a melting point of 88 °C.

Compound `CCOP(=S)(OCC)ON=C(C#N)c1ccccc1` yielded a melting point of 6.1 °C.

`COc1ccccc1NC(=O)C(C(F)(F)F)C(F)(F)F` gave a melting point of 163 °C.

For the compound `CN(C)C(=O)[C@@H](O)[C@H](O)C(=O)N(C)C`, the melting point fell in the range of 186 to 188 °C.

As to `O=C(O)/C=C/c1c[nH]c2ccccc12`, the melting point lay in the range of 184 to 187 °C.

Compound `Cc1ccc(NC(=O)NC(C)(C)c2ccccc2)cc1` displayed a melting point of 203 °C.

Compound `CC(C)C(O)C1(C)CCC(C(=O)O)C(C)(C)O1` (stereo not drawn) returned a melting point of 115 °C.

As for `Cc1ccc(S(=O)(=O)N[C@H](c2ccccc2)[C@H](NS(=O)(=O)c2ccc(C)cc2)c2ccccc2)cc1`, the melting point lay in the range of 203 to 208 °C.

`Cc1n[nH]c(C)c1C(=O)O`: the melting point lay in the range of 273 to 275 °C.

On to `Cn1ccc2c(S(=O)(=O)Cl)cccc21`, for which the melting point fell in the range of 94 to 98 °C.

`BrCCI`: the melting point was 28 °C.

The compound `CCCCCCCCCCC(=O)OCC(COC(=O)CCCCCCCCCC)OC(=O)CCCCCCCCCC` yielded a melting point of 24 to 32 °C.

Regarding `CC(C)[C@@H](N)CO`, the melting point fell in the range of 32 to 36 °C.

On to `CC1=NN(c2cccc(Cl)c2)C(=O)C1`, for which the melting point was 125 to 128 °C.

In turn, `CC(Cl)C(=O)Cl` (stereo not drawn) showed a melting point of -71 °C.

`CC(NC(=O)CCCCNC(=O)C12CC3CC(CC(C3)C1)C2)C(=O)NC(CCC(=O)O)C(N)=O` (stereo not drawn) came in with a melting point of 200 °C.

Take `Cc1cc(OC(=O)N(C)C)nn1C(=O)N(C)C`: the melting point stood at 69.5 °C.

As for `CCOC(=O)C=Cc1cccc(C=CC(=O)OCC)c1`, the melting point came out at 53.5 °C.

The compound `CC1(C)C2CC[C@]1(CS(=O)(=O)O)C(=O)C2` returned a melting point of 200 °C.

The compound `Cc1cc(C)n2nc(N)c(/N=N/c3ccncc3)c2n1` registered a melting point of 228 °C.
